Here are results for three molecules from patent publication US7842709B2, “Method for treating inflammatory diseases of the digestive tract” (Ore Pharmaceuticals Inc., priority 2006, dated 2010).

In data set [1] the test system is LPS induced NF-κB dependent transcription. The data set is described as follows: LPS induced NF-κB dependent transcription in extracted organs of NF-κB:Luc mice (luciferase lysate assay). In kind it is in vivo. Conditions: 0.5 mg/kg LPS and GL1001 at 30 mg/1 g vs LPS alone (FIG. 6). From the text:
For luciferase assays, organs were extracted and snap frozen in liquid nitrogen. All tissue samples were placed in lysis buffer with inhibitors (Passive Lysis Buffer (Promega) and Complete Mini Protease Inhibitor Cocktail (Roche, Indianapolis, Ind.)), and were homogenized using a tissue homogenizer (Handishear, Hand-held homogenizer, VirTis, Gardiner, N.Y.). Tissue homogenates were centrifuged and clarified lysates were used for luminometer assays and western blots. For the luminometer assays, Luciferase Assay Substrate (Luciferase Assay System, Promega) was prepared as indicated by the manufacturer and placed in disposable cuvettes. […] Background luminescence readings were obtained and the background readings were subtracted from the luminescent data. Protein concentrations were determined using the BCA Protein Assay Kit (Pierce, Rockford, Ill.) following the manufacturer's protocols and analyzed using a VERSAmax tunable microplate reader and associated Softmax Pro version 3.1.2 software (Molecular Devices, Sunnyvale Calif.). The luminescence for each of the protein lysates was calculated as arbitrary units of light per microgram of protein. […]
GL1001 was further tested for in vivo anti-inflammatory activity by examining its effects on bacterial LPS induced NF-κB dependent transcription, in NF-κB:Luc mice. […] Luciferase signal was quantitated from several regions of interest. […]

Data set [2] deals with NF-κB dependent transcription in recombinant HeLa reporter cells. The experiment in a line: TNFα-induced activation of NF-κB dependent transcription, luciferase reporter in HeLa cells. In kind it is cell-based. Conditions: TNFα 20 ng/ml, 6 hours. From the text: To test the ACE2 inhibitor GL1001 for anti-inflammatory activity relevant to IBD, effects of the compound on activation of NF-κB dependent transcription by TNFα were examined in recombinant reporter cells containing a construct with a luciferase reporter gene under control of NF-κB dependent regulatory sequences, thereby allowing detection of NF-κB dependent transcription by measuring reporter enzyme using a conventional luciferase activity assay based on detection of generated light.
In particular, HeLa cells (American Type Culture Collection) were grown in Dulbecco's modified Eagles medium (DMEM) supplemented with 10% fetal calf serum and transiently transfected with an NF-κB-luc construct (Stratagene, Inc.), as follows (with all incubation steps at 37 C unless otherwise indicated). Cells were seeded and grown to about 70% confluency in a 10 cm cell culture dish. Plasmid DNA (10 μg) was added to 1 ml serum free DMEM media in a tube. Fugene 6 transfection reagent (30 μl) (Roche) was then pipetted slowly into the tube and the contents were gently mixed by inversion. The mixture was incubated at room temperature for 15 minutes and then added dropwise to cells in one 10 cm dish. […] Bioluminescence was then measured using a Veritas luminometer (Turner BioSystems). […]

The subject of data set [3] is activator protein-1 (AP-1). The experiment in a line: In vivo basal reporter luciferase expression in AP-1:Luc mice. The conditions noted are these: data not shown.
Data set [4] concerns basal NF-κB dependent transcription. The data set is described as follows: In vivo basal NF-κB dependent transcription, abdominal imaging of NF-κB:Luc mice. The conditions noted are these: 300 mg/kg subcutaneous, 4 hours; p<0.01. From the text:
GL1001 was further tested for in vivo anti-inflammatory activity by examining its effects on basal levels of NF-κB dependent transcription in mice engineered in the germline with a construct containing an NF-κB enhancer linked to a luciferase gene (i.e., NF-κB:Luc mice), such that this NF-κB reporter construct is present in all cells of the mice.
More particularly, transgenic NF-κB:Luc mice were generated using three NF-κB response elements from the Igκ light chain promoter fused to a firefly luciferase gene as described by Carlsen et al. (2002) J. Immunol. 168:1441-1446. Pronuclear microinjection of purified construct DNA was used to generate transgenic founders in the C57BL/6 XCBA/J background. Founders were subsequently back crossed to the C57BL/6 albino background. […] Signal data were also quantitated and archived using the Living Image® software. Photons of light were quantitated using an oval region of interest (ROI) of varying sizes depending on the procedure, as described further below.
To test for in vivo effects of GL1001 on basal levels of NF-κB dependent transcription, male NF-κB:Luc mice were subjected to quantitative in vivo imaging of the abdominal area (using a fixed ROI of 2.76×3.7 cm) as described above, immediately before, and at 2, […]

In the next data set the test system is DSS-induced colitis. The data set is described as follows: DSS-induced colitis in Balb/c mice, Example 7. In kind it is in vivo. On the procedure: A study was designed with six groups of Balb/c mice: naïve control, DSS followed by vehicle, DSS followed by GL1001 30 mg/kg/day, DSS followed by GL1001 100 mg/kg/day, DSS followed by GL1001 300 mg/kg/day, and DSS followed by sulfasalazine 150 mg/kg/day. Administration of DSS was via drinking water, from day 1 to day 6 of the study. […] Administration of vehicle, GL1001 and sulfasalazine was subcutaneous, twice daily, from day 6 until termination of the study (day 16). Body weight of each animal was measured at days 1, 3 and 5 (pre-initiation of GL1001 or sulfasalazine treatment) and at days 7, 9, 11 and 13 (post-initiation of GL1001 or sulfasalazine treatment). On these same days, disease activity measurements were recorded, including: • (a) rectal prolapse (0=no prolapse, 1=partial prolapse, 2=moderate prolapse, 3=full prolapse); • (b) stool consistency (0=solid pellet, 1=semi-solid, 2=soft stool, 3=diarrhea); and • (c) fecal occult blood (0=no blood present, 1=occult blood, 2=gross blood). At termination of the study, colon length was determined and histological analysis was conducted as in Example 6.

Another data set has as its system NF-κB activity. The conditions noted are these: at least in CD; cited from earlier work.
A further data set has as its system ulcerative colitis. Conditions: 5 mg/kg infusions; cited from earlier work.
A further data set deals with Crohn's disease. The conditions noted are these: cited from earlier work.
[5] abbreviates: after a single dose, 5 mg/kg infusion.

Consider `CC(C)C[C@H](N[C@@H](Cc1cncn1Cc1cc(Cl)cc(Cl)c1)C(=O)O)C(=O)O` [GL1001, (S,S)-2-[1-carboxy-2-[3-(3,5-dichlorobenzyl)-3H-imidazol-4-yl]-ethylamino]-4-methylpentanoic acid], for which the “reduction of LPS induced NF-κB-dependent transcription in stomach” value in data set [1] is given as “about 37 fold”. Moreover, the “inhibition of TNFα induced activation of NF-κB dependent transcription” value in data set [2] (8 nM) is listed as “over 80%”. Moreover, in data set [2] (0.2 μM), the “maximal inhibition of TNFα induced activation of NF-κB dependent transcription” value is on record as “over 95%”. In addition, the “effect on basal in vivo levels of reporter luciferase expression in AP-1:Luc mice” value in data set [3] was “no significant effect”. Moreover, the “inhibition of basal in vivo levels of NF-κB dependent transcription in abdominal ROI” value in data set [4] is on record as “over 40%”.
Turning to `O=C(O)c1cc(/N=N/c2ccc(S(=O)(=O)Nc3ccccn3)cc2)ccc1O` [sulfasalazine], in the data set on DSS-induced colitis (sulfasalazine 150 mg/kg b.i.d. subcutaneous (FIG. 19)), the “reduction in colon length” value is given as “inhibits reduction”. Besides, the “distal colon inflammation score” value in the data set with DSS-induced colitis (sulfasalazine 150 mg/kg b.i.d. subcutaneous (FIG. 20)) is on record as “reduces”. The “distal colon crypt score” value with DSS-induced colitis (sulfasalazine 150 mg/kg b.i.d. subcutaneous (FIG. 21)) is reported as “reduces”. In addition, in the data set on DSS-induced colitis (sulfasalazine 150 mg/kg b.i.d. subcutaneous (FIG. 23)), the “distal colon total histopathology score” value is listed as “reduces”. Moreover, the stool consistency entry in the data set with DSS-induced colitis (sulfasalazine 150 mg/kg b.i.d. subcutaneous, day 7 (FIG. 17)) is “No significant effect”. Besides, the fecal occult blood result in the data set with DSS-induced colitis (sulfasalazine 150 mg/kg b.i.d. subcutaneous, day 7 (FIG. 18)) is given as “reduces”. Further, the percentage weight loss result with DSS-induced colitis (sulfasalazine 150 mg/kg b.i.d. subcutaneous, day 9 (FIG. 15)) was “No significant effect”. Besides, the rectal prolapse entry in the data set with DSS-induced colitis (sulfasalazine 150 mg/kg b.i.d. subcutaneous, day 9 (FIG. 16)) is listed as “reduces”.
With “Infliximab: anti-TNFα monoclonal antibody”, in the data set on NF-κB activity, the NF-κB activity result is “decrease”. Besides, the “response rates in UC” value in the data set on ulcerative colitis is 50-70%. For the same molecule, in the data set on Crohn's disease (setting [5]), the “induction of remission rate in CD” value is 50% and the “response rate in CD” value is given as 80%. Besides, in the data set on Crohn's disease (human, in vivo), the “patients in whom the fistula responds (closes), fistulizing CD” value was 68% and the “patients who develop an abscess, fistulizing CD” value was 12%.
